Reference: ChEMBL document CHEMBL1212936, “Discovery of 2-[1-(4-chlorophenyl)cyclopropyl]-3-hydroxy-8-(trifluoromethyl)quinoline-4-carboxylic acid (PSI-421), a P-selectin inhibitor with improved pharmacokinetic properties and oral efficacy in models of vascular injury” (J Med Chem, 2010)
Converted amounts (≈) assume the structure as drawn.

Key:
[1] = Aqueous solubility of the compound at pH 6.6; type: physicochemical; details: aqueous solution
Rattus norvegicus = test: Dose normalized AUC in Sprague-Dawley rat measured per mg of plasma at 3 mg/kg, iv and 10 mg/kg, po; type: ADME, organism-based; details: in vivo
[2] = Oral bioavailability in Sprague-Dawley rat at 10 mg/kg; type: ADME, organism-based; details: in vivo
[3] = Clearance in Sprague-Dawley rat at 3 mg/kg, iv and 10 mg/kg, po; type: ADME, organism-based; details: in vivo
[4] = molecular target: T1, P-selectin glycoprotein ligand 1 (Homo sapiens) (UniProt Q14242); test: Inhibition of recombinant PSGL-1 at 250 uM by surface plasmon resonance assay
T1 sequence (whole entry): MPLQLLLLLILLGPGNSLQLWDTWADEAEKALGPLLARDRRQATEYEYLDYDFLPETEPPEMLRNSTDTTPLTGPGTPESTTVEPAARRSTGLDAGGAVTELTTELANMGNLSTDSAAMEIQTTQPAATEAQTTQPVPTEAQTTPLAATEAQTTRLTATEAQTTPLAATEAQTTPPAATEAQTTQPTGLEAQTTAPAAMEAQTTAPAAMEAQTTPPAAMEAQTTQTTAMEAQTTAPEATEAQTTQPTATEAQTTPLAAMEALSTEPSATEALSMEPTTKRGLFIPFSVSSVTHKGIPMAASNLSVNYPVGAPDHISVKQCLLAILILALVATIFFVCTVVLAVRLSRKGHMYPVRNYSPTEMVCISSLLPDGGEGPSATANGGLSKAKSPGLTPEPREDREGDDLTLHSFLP

[5] = molecular target: T2, P-selectin glycoprotein ligand 1 (Homo sapiens, UniProt Q14242); test: Inhibition of recombinant PSGL-1 by surface plasmon resonance assay
T2 sequence (Q14242 whole entry): T1 sequence (whole entry)

CYP2C9 = CYP2C9 (Homo sapiens, UniProt P11712); test: Inhibition of CYP2C9 at 3 uM; type: ADME
Chain of CYP2C9 (P11712 whole entry): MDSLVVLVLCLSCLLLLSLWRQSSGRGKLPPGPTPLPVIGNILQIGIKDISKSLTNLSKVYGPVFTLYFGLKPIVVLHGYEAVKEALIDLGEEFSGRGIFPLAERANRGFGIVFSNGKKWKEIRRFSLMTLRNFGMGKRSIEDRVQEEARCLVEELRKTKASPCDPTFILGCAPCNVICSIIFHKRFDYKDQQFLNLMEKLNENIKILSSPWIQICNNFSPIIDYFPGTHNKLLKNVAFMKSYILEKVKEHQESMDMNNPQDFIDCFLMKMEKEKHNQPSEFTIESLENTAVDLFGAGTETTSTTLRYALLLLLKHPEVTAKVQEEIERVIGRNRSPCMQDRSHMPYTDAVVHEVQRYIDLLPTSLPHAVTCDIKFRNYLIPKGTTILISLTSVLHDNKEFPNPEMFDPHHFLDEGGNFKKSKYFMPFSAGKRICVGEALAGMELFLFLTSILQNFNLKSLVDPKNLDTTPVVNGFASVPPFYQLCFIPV

[6] = Aqueous solubility of the compound at pH 9; type: physicochemical; details: buffer
[7] = Half life in Beagle dog liver microsomes; type: ADME, Canis lupus familiaris, Microsome
[8] = Oral bioavailability in C57B6 mouse at 10 mg/kg; type: ADME, organism-based; details: in vivo
Canis familiaris = test: Dose normalized AUC in Beagle dog measured per mg of plasma at 2 mg/kg, iv and 10 mg/kg, po; type: ADME, organism-based, Canis lupus familiaris; details: in vivo
[9] = Aqueous solubility of the compound at pH 1; type: physicochemical; details: aqueous solution
Cynomolgus monkey = test: Dose normalized AUC in cynomolgus monkey measured per mg of plasma at 5 mg/kg, iv and po; type: ADME, organism-based, Macaca fascicularis; set-up: dose 5 mg/kg, route oral; details: in vivo
[10] = Aqueous solubility of the compound at pH 7.4; type: physicochemical; details: buffer
[11] = Half life in C57B6 mouse liver microsomes; type: ADME, Microsome
[12] = Half life in cynomolgus monkey liver microsomes; type: ADME, Macaca fascicularis, Microsome
[13] = Oral bioavailability in Beagle dog at 10 mg/kg; type: ADME, organism-based, Canis lupus familiaris; details: in vivo
[14] = Half life in human liver microsomes; type: ADME, Microsome
[15] = Clearance in C57B6 mouse at 2 mg/kg, iv and 10 mg/kg, po; type: ADME, organism-based; details: in vivo
[16] = Clearance in Beagle dog at 2 mg/kg, iv and 10 mg/kg, po; type: ADME, organism-based, Canis lupus familiaris; details: in vivo
Mus musculus = test: Dose normalized AUC in C57B6 mouse measured per mg of plasma at 2 mg/kg, iv and 10 mg/kg, po; type: ADME, organism-based; details: in vivo
[17] = Half life in Sprague-Dawley rat liver microsomes; type: ADME, Microsome
[18] = Oral bioavailability in cynomolgus monkey at 5 mg/kg; type: ADME, organism-based, Macaca fascicularis; details: in vivo
[19] = Aqueous solubility of the compound at pH 4.5; type: physicochemical; details: aqueous solution

SMILES	solubility [1] [µg/mL]	AUC (Rattus norvegicus) [ng·h/mL]	bioavailability [2] [%]	clearance [3] [mL/min/kg]	inhibition [4] [%]	inhibition at 3 µM (CYP2C9) [%]	further results
Cc1ccc2c(C(=O)O)c(O)c(C3(c4ccc(Cl)cc4)CC3)nc2c1C	190 (≈ 517 µM)	1735	75	7	–	–	–
CC(C)C(c1ccccc1)c1nc2c(C(F)(F)F)cccc2c(C(=O)O)c1O (configuration not stated)	30 (≈ 77 µM)	–	–	–	58	–	–
O=C(O)c1c(O)c(C2(c3ccc(F)cc3)CC2)nc2c(C(F)(F)F)cccc12	2900 (≈ 7410 µM)	14282	39	0.5	56	–	–
O=C(O)c1c(O)c(Cc2ccccc2)nc2c3c(ccc12)CCCC3	–	–	–	–	–	–	IC50 [5]: 413 µM
CC(C)c1cccc2c(C(=O)O)c(O)c(C3(c4ccccc4)CC3)nc12	370 (≈ 1070 µM)	2663	100	9	–	–	–
O=C(O)c1c(O)c(C2(c3ccccc3Cl)CC2)nc2c(C(F)(F)F)cccc12	760 (≈ 1860 µM)	1336	19	2.4	57	–	–
Cc1cc(C(F)(F)F)c2nc(C3(c4ccccc4)CC3)c(O)c(C(=O)O)c2c1	–	–	–	–	40	87	–
Cc1cc(C)c2nc(C3(c4ccc(Cl)cc4)CC3)c(O)c(C(=O)O)c2c1	–	–	–	–	47	17	–
O=C(O)c1c(O)c(Cc2ccc(Cl)cc2)nc2c(C(F)(F)F)cccc12	440 (≈ 1150 µM)	–	–	–	40	–	–
CCc1cc(C(F)(F)F)c2nc(C3(c4ccccc4)CC3)c(O)c(C(=O)O)c2c1	–	–	–	–	40	86	–
O=C(O)c1c(O)c(C2(c3cccs3)CC2)nc2c(C(F)(F)F)cccc12	–	–	–	–	15	–	–
O=C(O)c1c(O)c(C2(c3ccc(Br)cc3)CC2)nc2c(C(F)(F)F)cccc12	420 (≈ 929 µM)	–	–	–	64	–	–
CC(C)c1cccc2c(C(=O)O)c(O)c(C3(c4ccc(F)cc4)CC3)nc12	2500 (≈ 6840 µM)	1263	65	8.7	–	–	–
Cc1cc(C)c2nc(C3(c4ccccc4)CC3)c(O)c(C(=O)O)c2c1	–	–	–	–	20	54	–
CCc1cccc2c(C(=O)O)c(O)c(C3(c4ccc(Cl)cc4)CC3)nc12	140 (≈ 381 µM)	13986	100	2.4	–	–	–
O=C(O)c1c(O)c(C2(c3ccc(OC(F)(F)F)cc3)CC2)nc2c(C(F)(F)F)cccc12	–	–	–	–	29	–	–
CC(c1ccccc1)c1nc2c(C(F)(F)F)cccc2c(C(=O)O)c1O (configuration not stated)	1550 (≈ 4290 µM)	–	–	–	50	–	–
CCC(c1ccccc1)c1nc2c(C(F)(F)F)cccc2c(C(=O)O)c1O (configuration not stated)	600 (≈ 1600 µM)	–	–	–	55	–	–
Cc1cc(C(F)(F)F)c2nc(C3(c4ccc(Cl)cc4)CC3)c(O)c(C(=O)O)c2c1	–	–	–	–	65	72	–
Cc1ccc(C2(c3nc4c(C)cc(C)cc4c(C(=O)O)c3O)CC2)cc1	–	–	–	–	11	55	–
Cc1cc(C)c2nc(C3(c4ccc(F)cc4)CC3)c(O)c(C(=O)O)c2c1	–	–	–	–	< 10	55	–
O=C(O)c1c(O)c(C2(c3ccc(Cl)cc3)CC2)nc2c(C(F)(F)F)cc(Br)cc12	–	–	–	–	< 10	65	–
O=C(O)c1c(O)c(Cc2ccc(Cl)cc2)nc2c3c(ccc12)CCCC3 [PSI-697]	< 10	440	27	11	–	–	solubility [6]: 75 µg/mL (≈ 204 µM); half-life [7]: > 60 min; bioavailability [8]: 100%; AUC (Canis familiaris): 11666 ng·h/mL; solubility [9]: < 1 µg/mL; AUC (Cynomolgus monkey): 1202 ng·h/mL; solubility [10]: 90 µg/mL (≈ 245 µM); half-life [11]: 14 min; half-life [12]: 44 min; bioavailability [13]: 58%; half-life [14]: > 60 min; clearance [15]: 11.6 mL/min/kg; IC50 [5]: 150 µM; clearance [16]: 0.9 mL/min/kg; AUC (Mus musculus): 1510 ng·h/mL; half-life [17]: 2 min; bioavailability [18]: 40%; solubility [19]: < 1 µg/mL
